Converted amounts (≈) assume the structure as drawn. Where a SMILES comes first, the peptide text is derived from it.
Assays:
[1] = tested on: Listeria monocytogenes 10403 s; conditions: 10403 s, 24 h
[2] = tested on: Staphylococcus aureus ATCC 25923; conditions: ATCC 25923, 24 h
[3] = tested on: Enterococcus faecalis ATCC 29212; conditions: ATCC 29212, 24 h
[4] = tested on: Escherichia coli ATCC 25922; conditions: ATCC 25922, 24 h
[5] = tested on: all Gram-positive strains; assay: Mean MIC and therapeutic index, Gram-positive strains; assay type: cell-based; conditions: 5 Gram-positive strains of Table 3
Procedure: (§1) The antimicrobial activity of the peptides was determined against both Gram-positive and -negative bacteria including 14 MDR P. aeruginosa clinical isolates from Bhumibol Adulyadej Hospital (Tables 1 and 3). The minimal inhibitory concentration (MIC) of each peptide was measured according to a modification of the National Committee for Clinical Laboratory Standards (NCCLS) broth microdilution method as previously described. Briefly, bacterial cells in mid-log phase were cultured in Müeller-Hinton broth (MHB) and then diluted to 10^7 CFU/ml. […] Plates were incubated at 37 °C for 24 h, and MICs were defined as the lowest concentration of peptide that prevented visible turbidity. Cultures without peptides and uninoculated MHB were employed as positive and negative controls, respectively. Colony count assays were performed to determine the minimal bactericidal concentrations (MBCs) for determination of time-killing activity. As previously described, a 50 μl aliquot from each non-turbid well identified in the MIC determination experiment was spread on agar plates.
(§2) To further evaluate the global activity of these peptides, the geometric mean (GM) MIC and the therapeutic index (TI) of each were calculated (Table 3). The TI, a widely used parameter to evaluate cell selectivity and specificity of antimicrobial agents, was calculated as the ratio of MHC (the concentration that causes 10% hemolysis) to the geometric mean of MICs[22]. Higher TIs indicated greater cell selectivity and specificity.

[6] = tested on: all Gram-negative strains; assay: Mean MIC and therapeutic index, Gram-negative strains; assay type: cell-based; conditions: 7 Gram-negative strains of Table 3
Procedure: as §1, §2

[7] = tested on: Staphylococcus epidermidis ATCC 12228; conditions: ATCC 12228, 24 h
[8] = tested on: Escherichia coli O157:H7 MT strain; conditions: E. coli O157:H7 MT strain; MHB, 37 °C, 24 h
[9] = tested on: Vibrio cholera O1 Inaba DMST 16261; conditions: MHB, 37 °C, 24 h
[10] = tested on: Pseudomonas aeruginosa ATCC 27853; conditions: ATCC 27853, 24 h
[11] = tested on: Salmonella Typhimurium ATCC 13311; conditions: ATCC 13311, 24 h

In the case of `CC[C@H](C)[C@H](NC(=O)[C@H](CCCNC(=N)N)NC(=O)[C@H](CCCCN)NC(=O)[C@H](C)NC(=O)[C@@H](NC(=O)[C@@H](N)CCCCN)[C@@H](C)CC)C(=O)N[C@@H](Cc1c[nH]c2ccccc12)C(=O)N[C@@H](CCCCN)C(=O)N[C@H](C(=O)N[C@@H](CC(C)C)C(=O)N[C@@H](CCCNC(=N)N)C(=O)N[C@@H](CCCNC(=N)N)C(=O)N[C@@H](CCCNC(=N)N)C(=O)N[C@@H](CC(C)C)C(=O)N[C@@H](Cc1ccccc1)C(=O)N[C@@H](CCCNC(=N)N)C(=O)N[C@@H](CCCNC(=N)N)C(=O)N[C@H](C(=O)N[C@@H](CCCCN)C(=O)N[C@@H](CCCCN)C(=O)N[C@H](C(=O)N[C@@H](C)C(=O)NCC(N)=O)C(C)C)C(C)C)[C@@H](C)CC` [P7A3] (H-KIAKRIWKILRRRLFRRVKKVAG-NH2; N-terminus assumed), the MIC [1] is reported as 3.91 µg/mL (≈ 1.35 µM), the MIC [2] is reported as 15.63 µg/mL (≈ 5.41 µM) and the MIC [3] is reported as 31.25 µg/mL (≈ 10.8 µM). For the same molecule, the MIC [4] was 15.63 µg/mL (≈ 5.41 µM), the “GM (Gr.+ strains): geometric mean of MIC values from all Gram-positive strains” value (“GM (Gr.+ strains): geometric mean” below) [5] was 12.50 µg/mL and the “GM (Gr.− strains): geometric mean of MIC values from all Gram-negative strains” value (shortened to “GM (Gr.− strains): geometric mean”) [6] was 42.97 µg/mL. The MIC [7] was 3.91 µg/mL (≈ 1.35 µM), the MIC [8] was 250 µg/mL (≈ 86.5 µM) and the MIC [9] was 7.81 µg/mL (≈ 2.7 µM).

`CC[C@H](C)[C@H](NC(=O)[C@H](CCCNC(=N)N)NC(=O)[C@H](CCCCN)NC(=O)[C@H](C)NC(=O)[C@@H](NC(=O)[C@@H](N)CCCCN)[C@@H](C)CC)C(=O)N[C@@H](Cc1c[nH]c2ccccc12)C(=O)N[C@@H](CCCCN)C(=O)N[C@H](C(=O)N[C@@H](CC(C)C)C(=O)N[C@@H](CCCNC(=N)N)C(=O)N[C@@H](CCCNC(=N)N)C(=O)N[C@@H](CCCNC(=N)N)C(=O)N[C@@H](CC(C)C)C(=O)N[C@@H](Cc1ccccc1)C(N)=O)[C@@H](C)CC` [PA-15] (H-KIAKRIWKILRRRLF-NH2; N-terminus assumed) was tested, and the MIC [1] was 1.95 µg/mL (≈ 0.977 µM), the MIC [10] was 7.81 µg/mL (≈ 3.91 µM) and the MIC [2] was 7.81 µg/mL (≈ 3.91 µM). The MIC [3] was 31.25 µg/mL (≈ 15.7 µM), the “GM (Gr.+ strains): geometric mean” value [5] was 9.77 µg/mL and the “GM (Gr.− strains): geometric mean” value [6] was 7.54 µg/mL. For the same molecule, the MIC [8] was 15.63 µg/mL (≈ 7.83 µM), the MIC [11] was 1.95 µg/mL (≈ 0.977 µM) and the MIC [9] was 3.91 µg/mL (≈ 1.96 µM).

With `CC[C@H](C)[C@H](NC(=O)[C@H](CCCNC(=N)N)NC(=O)[C@H](CCCCN)NC(=O)[C@H](C)NC(=O)[C@@H](NC(=O)[C@@H](N)CCCCN)[C@@H](C)CC)C(=O)N[C@@H](Cc1c[nH]c2ccccc12)C(=O)N[C@@H](CCCCN)C(=O)N[C@H](C(=O)N[C@@H](CC(C)C)C(=O)N[C@@H](CCCNC(=N)N)C(=O)N[C@@H](CCCNC(=N)N)C(=O)N[C@@H](CCCNC(=N)N)C(=O)N[C@@H](CC(C)C)C(=O)N[C@@H](Cc1ccccc1)C(=O)N[C@@H](CCCNC(=N)N)C(=O)N[C@@H](CCCNC(=N)N)C(N)=O)[C@@H](C)CC` [PA-17] (H-KIAKRIWKILRRRLFRR-NH2; N-terminus assumed) the MIC [1] was 1.95 µg/mL (≈ 0.845 µM), the MIC [2] was 15.63 µg/mL (≈ 6.77 µM) and the MIC [3] was 31.25 µg/mL (≈ 13.5 µM). The MIC [4] was 15.63 µg/mL (≈ 6.77 µM), the “GM (Gr.+ strains): geometric mean” value [5] was 12.11 µg/mL and the “GM (Gr.− strains): geometric mean” value [6] was 15.63 µg/mL. The MIC [7] was 3.91 µg/mL (≈ 1.69 µM), the MIC [8] was 62.5 µg/mL (≈ 27.1 µM) and the MIC [11] was 3.91 µg/mL (≈ 1.69 µM). The MIC [9] was 7.81 µg/mL (≈ 3.38 µM).

— PMC7272617 (Scientific Reports, 2020)
